Structures can show the parent of a compound that is named as a salt. Where two headings read alike, the source gives them in different places. Each block holds one molecule with its values, some of them ahead of it.
Tests used:
Murine thymocytes = test: Dexamethasone-induced thymocyte apoptosis assay (DiOC6/PI staining, flow cytometry); assay type: cell-based; settings: Mus musculus, 6 hours; for viability at 10 µM: compound 10 μM; for viability at 10 µM / viability at 5 µM: challenged with DEX, control 72 ± 4, DEX alone 36 ± 7, read-out: Average cell survival (%) Average alive cells (%); for viability at 5 µM: compound tested at 5 μM (footnote b); for EC50: 5 μM dexamethasone
Description: All of the compounds were screened in the thymocyte assay for cytotoxicity and their ability to prevent dexamethasone-induced cell death. Murine thymocytes were exposed to 10 μM or 5 μM of each compound in the presence or absence of DEX for six hours and then assayed for their in vitro viability by 3,3′-dihexyloxacarbocyanine iodide (DiOC6) and propidium iodide (PI) staining, and flow cytometry. When cell death signals converge on the mitochondria, there is a loss of the inner mitochondrial membrane potential and cells can no longer retain the dye DiOC6 as an indicator of apoptosis. Once cells lose the integrity of the outer cell membrane, then the dye propidium iodide is no longer excluded from these cells. The percentage of viable cells, which retained DiOC6 and excluded PI was compared to cells treated with DEX alone.
Apoptosis assays. Thymocytes were harvested from young C57B1/6 mice and cultured at 37° C. in 5% CO2 in RPMI 1640 containing 10% FBS, 1% Penicillin/Streptomycin (Gibco BRL, Rockville, Md.). Thymocytes were plated at a density of 10^7 cells/mL and pre-incubated with 5-10 μM of each compound (from 10 mM stock in DMSO) for 30 minutes before induction of apoptosis. Apoptosis was induced with 5 μM dexamethasone or by exposure to 6 Gy gamma radiation. After 6 hours, cell apoptosis was assayed by propidium iodide (PI) and 3,3′ dihexyloxacarbocyanine iodide (DiOC6) staining. The cells were removed from the plate and incubated for 30 minutes in medium with 40 nM DiOC6 and 5 μg/mL PI and then analyzed by flow cytometry in a FACS caliber (Beckton-Dickinson, San Jose, Calif.). Viable cells had high DiOC6 (FL-1) and low PI (FL-3), whereas apoptotic cells had low DiOC6 (FL-1) and low PI (FL-3). To evaluate the EC50s the thymocytes were pre-exposed to graded concentrations of selected compounds for 30 minutes and then apoptosis was induced with 5 μM dexamethasone. After 6 hours the cells were harvested and stained as above.
The concentration (EC50) of each compound that inhibited dexamethasone-induced cell death by 50% was determined by nonlinear regression fitting of the data to a one-site model. Pseudo Hill slopes were determined by nonlinear regression fit of the data to a sigmoidal dose-response equation (variable slope): % viability=minimum % viability+(maximum−minimum % viability)/[1+10(log EC50−X)^n], where X is the logarithm of inhibitor concentration, and n is the pseudo Hill slope and the maximum and minimum % viability were experimentally determined after dexamethasone exposure and drug treatment. EC50 values and 95% confidence intervals (CI) were derived from the sigmoid fits to the percent control transformed data shown using GraphPad Prism version 4.0b for Macintosh (GraphPad Software, San Diego, Calif.).

[1] = tested on: Bax, PUMA, noxa, DR5 (killer) mRNA; test: Modulation of proapoptotic genes by real time PCR in DEX-treated thymocytes; assay type: cell-based, mouse
Description: Four proapoptotic genes were tested by real time PCR. […] PUMA and noxa belong to the BH3-only protein subclass while Bax is a multidomain member of the family. DR5 (also called killer) is an apoptosis-inducing membrane receptor for tumor necrosis factor-related apoptosis-inducing ligand (also called TRAIL and Apo2 ligand). DR5 is a transcriptional target of p53, and its over expression induces cell death in vitro (Finnberg et al., Molecular and Cellular Biology 2005, 25, 2000-2013).

PUMA = PUMA protein expression in DEX-treated thymocytes (western blot); assay type: cell-based, mouse; settings: thymocytes pretreated with 10 μM compound, 5 μM dexamethasone 6 hours, FIG. 6
Description: Thymocytes were pretreated with 10 μM of the indicated compounds and then exposed to 5 μM of dexamethasone for 6 hours. The cytosolic proteins were fractionated and then separated on a 4-12% gradient gel by SDS-PAGE and transferred to a PDVF membrane, which was probed with antibodies to PUMA and actin.
After removal of medium, cells were disrupted in lysis buffer (10 mM HEPES pH 7.9, 10 mM KCl, 0.1 mM EDTA, 0.1 mM EGTA, 1 mM dithiothreitol, 0.5 mM phenylmethylsulfonyl fluoride, and 0.6% NP-40) on ice. The nuclei were separated by centrifugation and the cytoplasmic sample removed. The nuclear pellets were resuspended in (20 mM HEPES pH 7.9, 0.4 M NaCl, 1.0 mM EDTA, 1.0 mM EGTA, 1 mM dithiothreitol, 0.1 mM phenylmethylsulfonyl fluoride) and the insoluble material was removed by centrifugation. The samples were heated to 70° C. for 10 minutes in loading buffer with 10 mM DTT. Each lane of an SDS-PAGE gel was loaded with 20 μg of protein. After electrophoresis, the proteins were transferred to a polyvinylidene difluoride (PVDF) membrane, blocked with 2% I-block™ (Tropix Inc, Bedford, Mass.) containing 0.05% Tween-20 in PBS, and then incubated with anti-PUMA (AbCam, Inc., Cambridge, Mass.). Horseradish peroxidase-conjugated anti-IgG (Santa Cruz Laboratories, Santa Cruz, Calif.) was used as the secondary antibody. […]

[2] = tested on: spontaneous apoptosis and fludarabine-induced apoptosis; test: Protection against spontaneous and fludarabine-induced apoptosis (FIG. 2); assay type: cell-based
[3] = cited from earlier work
[4] = Table 2, 30 minutes pre-exposure, read-out: EDEC50 (μM) of compounds in thymocyte apoptosis assay (first value in cell) (converted)
[5] = Table 1, 30 minutes pre-exposure, read-out: EDEC50 (μM) of compounds in thymocyte apoptosis assay
[6] = mouse thymocytes treated with DEX, FIG. 5

SMILES: c1coc(-c2cn3c(n2)sc2ccccc23)c1 [Compound 3, 2-Furan-2-yl-imidazo[2,1-b]benzothiazole hydrobromide salt]
viability at 10 µM (Murine thymocytes): 16%

SMILES: Cc1ccc(-c2cn3c(n2)sc2cc(O)ccc23)cc1 [Compound 4, 2-p-Tolyl-benzo[d]imidazo[2,1-b]thiazol-7-ol]
viability at 5 µM (Murine thymocytes): 19%

SMILES: Brc1ccc(-c2cn3c(n2)sc2ccccc23)cc1 [Compound 5]
viability at 10 µM (Murine thymocytes): 22%

SMILES: Cc1ccc(-c2nc3sc4ccccc4n3c2Br)cc1 [Compound 6, 3-Bromo-2-p-tolyl-imidazo[2,1-b]benzothiazole]
viability at 5 µM (Murine thymocytes): 24%

SMILES: Cc1ccc(-c2cn3c(n2)sc2cc(N)ccc23)cc1 [Compound 7, 2-p-Tolyl-imidazo[2,1-b]benzothiazol-7-ylamine]
viability at 10 µM (Murine thymocytes): 27%

SMILES: c1ccc2c(c1)sc1nc(-c3ccc(C4CCCC4)cc3)cn12 [Compound 8, 2-(4-Cyclopentyl-phenyl)-imidzxo[2,1-b]benzothiazoles hydrobromide salt]
viability at 10 µM (Murine thymocytes): 36%

SMILES: Cc1ccc(-c2cn3c(n2)sc2cc(Br)ccc23)cc1 [Compound 9, 7-Bromo-2-p-tolylimidazo[2,1-b]benzothiazole hydrobromide salt]
viability at 10 µM (Murine thymocytes): 39%

EC50 (Murine thymocytes; [4]): 8.12 µM
SMILES: c1ccc(-c2ccc(-c3cn4c(n3)sc3ccccc34)cc2)cc1 [Compound 10]
viability at 10 µM (Murine thymocytes): 59%

EC50 (Murine thymocytes; [5]): 4.44 µM
SMILES: COc1ccc2c(c1)sc1nc(-c3ccc(C)cc3)cn12 [Compound 11, 7-Methoxy-2-p-tolyl-imidazo[2,1-b]benzothiazole hydrobromide salt]
viability at 5 µM (Murine thymocytes): 68%

EC50 (Murine thymocytes; [5]): 10.2 µM
SMILES: c1ccc(-c2cn3c(n2)sc2ccccc23)cc1 [Compound 12]
viability at 10 µM (Murine thymocytes): 73%

EC50 (Murine thymocytes; [4]): 1.22 µM
SMILES: Cc1ccc(-c2cn3c(n2)sc2ccccc23)cc1 [Compound 13]
viability at 5 µM (Murine thymocytes): 73%

EC50 (Murine thymocytes; [4]): 4.02 µM
SMILES: c1ccc2cc(-c3ccc(-c4cn5c(n4)sc4ccccc45)cc3)ccc2c1 [Compound 14]
viability at 5 µM (Murine thymocytes): 75%

EC50 (Murine thymocytes; [4]): 0.35 µM
SMILES: Br.c1ccc2c(c1)sc1nc(-c3ccc(N4CCCC4)cc3)cn12 [Compound 15, 2-(4-Pyrrolidin-1-yl-phenyl)-benzo[d]imidazo[2,1-b]thiazole hydrobromide salt]
viability at 5 µM (Murine thymocytes): 78%
mRNA level of bax and killer relative to control [1, 6]: below it
mRNA level of proapoptotic genes (Bax, PUMA, noxa, DR5) relative to control [1, 6]: close to that of the control
PUMA protein expression (western blot) (PUMA): total inhibition

SMILES: C[C@@H]1C[C@H]2[C@@H]3CCC4=CC(=O)C=C[C@]4(C)[C@@]3(F)[C@@H](O)C[C@]2(C)[C@@]1(O)C(=O)CO [Dexamethasone, reference compound]
Increase of PUMA mRNA upon treatment ([1]; mouse thymocytes, DEX treatment alone): over 9 fold

SMILES: Cc1ccc(-c2cn3c4c(sc3n2)CCCC4)cc1 [IBT]
Effect against fludarabine-induced apoptosis [2]: protective effect
Effect against spontaneous apoptosis [2]: protective effect

SMILES: Cc1ccc(C(=O)Cn2c3c(sc2=N)CCCC3)cc1 [PFT-α, 2-(2-imino-4,5,6,7-tetrahydro-benzothiazol-3-yl)-1-p-tolyl-ethanone hydrobromide, reference compound]
Stability under physiologic conditions [3]: not stable
PUMA protein expression (western blot) (PUMA): partial inhibition
